Key:
HCT-15 = experiment: Antiproliferative activity against human HCT-15 cells incubated for 72 hrs by MTT assay; type: functional, cell-based; settings: HCT-15, 72 h
HCT-8 = experiment: Antiproliferative activity against human HCT-8 cells incubated for 72 hrs by MTT assay; type: functional, cell-based; settings: HCT-8, 72 h
HT-29 [1] = experiment: cells; settings: Homo sapiens, HT-29, 72 h
Description: Antiproliferative activity against human HT-29 cells incubated for 72 hrs by MTT assay

HCT-116 = experiment: cells; settings: Homo sapiens, HCT-116, 72 h
Description: Antiproliferative activity against human HCT-116 cells incubated for 72 hrs by MTT assay

[2] = Inhibition of c-Myc/Max binding to DNA (unknown origin) by fluorescence polarization assay; set-up: species or system Homo sapiens
HT-29 [3] = experiment: Antitumor activity against human HT-29 cells xenografted in BALB/c mouse assessed as tumor growth inhibition at 40 mg/kg, ip administered daily for 3 weeks by caliper method; type: functional; settings: HT-29, 504 h, read-out: TGI
[4] = Toxicity in BALB/c mouse xenografted with human HT-29 cells assessed as body weight loss at 40 mg/kg, ip measured after 12 days; type: organism-based; settings: in vivo, 288 h, time 12 day
[5] = Toxicity in BALB/c mouse xenografted with human HT-29 cells assessed as heart damage at 40 mg/kg, ip measured after 21 days by H and E staining based assay; type: organism-based; settings: in vivo, 504 h, time 21 day
[6] = Toxicity in BALB/c mouse xenografted with human HT-29 cells assessed as liver damage at 40 mg/kg, ip measured after 21 days by H and E staining based assay; type: organism-based; settings: in vivo, 504 h, time 21 day
[7] = Toxicity in BALB/c mouse xenografted with human HT-29 cells assessed as lung damage at 40 mg/kg, ip measured after 21 days by H and E staining based assay; type: organism-based; settings: in vivo, 504 h, time 21 day
[8] = Toxicity in BALB/c mouse xenografted with human HT-29 cells assessed as kidney damage at 40 mg/kg, ip measured after 21 days by H and E staining based assay; type: organism-based; settings: in vivo, 504 h, time 21 day
c-Myc/c-Max = c-Myc/c-Max (Homo sapiens, UniProt P01106+P61244); experiment: Inhibition of c-Myc to Max protein dimerization (unknown origin) by electrophoretic mobility shift assay
Chain of c-Myc/c-Max (P01106 whole entry): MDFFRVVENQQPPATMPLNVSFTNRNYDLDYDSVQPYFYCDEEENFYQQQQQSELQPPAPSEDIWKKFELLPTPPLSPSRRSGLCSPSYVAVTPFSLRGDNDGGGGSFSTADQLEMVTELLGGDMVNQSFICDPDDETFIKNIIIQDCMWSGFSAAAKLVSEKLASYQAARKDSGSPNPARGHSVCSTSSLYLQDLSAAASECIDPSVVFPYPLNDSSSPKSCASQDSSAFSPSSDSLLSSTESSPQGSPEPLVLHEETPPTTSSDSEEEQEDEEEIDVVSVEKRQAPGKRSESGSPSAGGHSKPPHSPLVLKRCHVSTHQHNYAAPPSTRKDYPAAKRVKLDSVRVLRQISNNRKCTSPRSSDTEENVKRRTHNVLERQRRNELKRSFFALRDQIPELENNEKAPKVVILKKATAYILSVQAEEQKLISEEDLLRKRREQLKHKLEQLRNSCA
Chain of c-Myc/c-Max (P61244 whole entry): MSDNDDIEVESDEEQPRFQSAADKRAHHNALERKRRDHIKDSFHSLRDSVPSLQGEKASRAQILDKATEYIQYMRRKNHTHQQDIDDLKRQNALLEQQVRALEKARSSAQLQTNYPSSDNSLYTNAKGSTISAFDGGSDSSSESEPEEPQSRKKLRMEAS

HT-29 [9] = experiment: Inhibition of colony formation in human HT-29 cells measured after 14 days by crystal violet staining based assay; type: functional, cell-based; settings: dose 0.25-2 µM, time 14.0 day
HT-29 [10] = experiment: Downregulation of c-Myc expression in human […] cells incubated for 24 hrs by Western blot analysis; type: functional, cell-based; settings: dose 2.5-10 µM
Homo sapiens = species on record: Homo sapiens; experiment: Inhibition of human Myc (353 to 439 residues)/Max(S) (151 residues) expressed in Escherichia coli BL21(DE3) binding to biotinylated double-stranded DNA oligonucleotide 5'-CACCCGGTCACTGGCCTACAC-3' (unknown origin) preincubated for 90 mins followed by oligonucleotide addition for 25 mins by EMSA; settings: time 115.0 min

Row | Structure (SMILES) | IC50 (HCT-15) [µM] | IC50 (HCT-8) [µM] | IC50 (HT-29 [1]) [µM] | IC50 (HCT-116) [µM] | further results
1 | COc1cc(Oc2ccc(Nc3ccc(-c4cnc5ccccc5c4)cc3)cc2)cc(OC)c1CNCCc1ccc(C(F)(F)F)cc1 | 1.58 | 6.77 | 1.99 | 3.12 | –
2 | COc1cc(Oc2ccc(-c3ccc(C(F)(F)F)cc3)cc2)cc(OC)c1CNCCc1ccc(C(F)(F)F)cc1 | 4.89 | 8.76 | 2.51 | 4.7 | –
3 | COc1cc(Oc2ccc(Nc3ccc(C#N)cc3)cc2)cc(OC)c1CNCCc1ccc(C(F)(F)F)cc1 | 2.43 | 6.75 | 0.9 | 2.38 | –
4 | COc1cc(Oc2ccc(-c3ccc(F)cc3)cc2)cc(OC)c1CNCCc1ccc(C(F)(F)F)cc1 | 4.23 | 7.89 | 1.95 | 3.77 | –
5 | COc1cc(Oc2ccc(-c3ccc(C)cc3)cc2)cc(OC)c1CNCCc1ccc(C(F)(F)F)cc1 | 2.32 | 8.95 | 1.35 | 2.41 | –
6 | COc1ccc(Nc2ccc(Oc3cc(OC)c(CNCCc4ccc(C(F)(F)F)cc4)c(OC)c3)cc2)cc1 | 6.37 | 4.22 | 1.41 | 1.91 | –
7 | COc1cc(Oc2ccc(Nc3ccc(Cc4ccccc4)cc3)cc2)cc(OC)c1CNCCc1ccc(C(F)(F)F)cc1 | 4.48 | 6.57 | 1.13 | 5.21 | –
8 | COc1cc(Oc2ccc(Nc3ccc(C)cc3)cc2)cc(OC)c1CNCCc1ccc(C(F)(F)F)cc1 | 5.61 | 7.13 | 1.11 | 2.13 | –
9 | COc1cc(Oc2ccc(Nc3ccc(C(=O)C(F)(F)F)cc3)cc2)cc(OC)c1CNCCc1ccc(C(F)(F)F)cc1 | 1.89 | 7.86 | 1.93 | 2.43 | –
10 | C=C(OCC)c1cnn(-c2ccccc2)c1NC(=O)c1cc2nc(-c3ccco3)cc(C(F)(F)Cl)n2n1 | – | – | – | – | IC50 [2]: 40 µM
11 | COc1cc(Oc2ccc(Nc3ccc(Cl)cc3)cc2)cc(OC)c1CNCCc1ccc(C(F)(F)F)cc1 | 5.31 | 4.1 | 1.29 | 3.53 | –
12 | COc1cc(Oc2ccc(-c3ccc(Br)cc3)cc2)cc(OC)c1CNCCc1ccc(C(F)(F)F)cc1 | 2.23 | 8.75 | 2.57 | 2.71 | –
13 | COc1cc(Oc2ccc(Nc3ccc(SC)cc3)cc2)cc(OC)c1CNCCc1ccc(C(F)(F)F)cc1 | 2.13 | 8.36 | 1.72 | 3.79 | –
14 | COc1cc(Oc2ccc(Nc3ccccc3)cc2)cc(OC)c1CNCCc1ccc(C(F)(F)F)cc1 | 2.78 | 4.23 | 1.05 | 1.75 | –
15 | COc1cc(Oc2ccc(Nc3ccc(CCO)cc3)cc2)cc(OC)c1CNCCc1ccc(C(F)(F)F)cc1 | 3.21 | 3.58 | 0.86 | 2.05 | –
16 | CCc1ccc(Nc2ccc(Oc3cc(OC)c(CNCCc4ccc(C(F)(F)F)cc4)c(OC)c3)cc2)cc1 | 5.54 | 4.58 | 1.51 | 3.87 | –
17 | COc1cc(Oc2ccc(Nc3ccc(CO)cc3)cc2)cc(OC)c1CNCCc1ccc(C(F)(F)F)cc1 | 3.33 | 3.23 | 1.03 | 3.22 | –
18 | COc1cc(Oc2ccc(Nc3ccccc3)cc2)cc(OC)c1CNCCc1ccccn1 | 6.87 | 11.2 | 2.94 | 2.76 | –
19 | COc1cc(Oc2ccc(-c3ccccc3)cc2)cc(OC)c1CNCCc1ccc(C(F)(F)F)cc1 | 1.55 | 6.98 | 1.41 | 2.8 | –
20 | CCCc1ccc(Nc2ccc(Oc3cc(OC)c(CNCCc4ccc(C(F)(F)F)cc4)c(OC)c3)cc2)cc1 | 5.62 | 4.1 | 1.6 | 3.23 | –
21 | COc1cc(Oc2ccc(Nc3ccc(C(F)(F)F)cc3)cc2)cc(OC)c1CNCCc1ccc(C(F)(F)F)cc1 | 3.24 | 8.49 | 1.31 | 6.46 | –
22 | CCCCc1ccc(Nc2ccc(Oc3cc(OC)c(CNCCc4ccc(C(F)(F)F)cc4)c(OC)c3)cc2)cc1 | 4.86 | 4.98 | 1.75 | 3.1 | –
23 | COc1cc(Oc2ccc(Nc3ccc(Br)cc3)cc2)cc(OC)c1CNCCc1ccc(C(F)(F)F)cc1 | 3.85 | 6.98 | 1.31 | 3.54 | –

Row | Structure (SMILES) | IC50 (HCT-15) [µM] | IC50 (HCT-8) [µM] | IC50 (HT-29 [1]) [µM] | IC50 (HCT-116) [µM] | further results
24 | COc1cc(Oc2ccc(Nc3ccc(C(F)(F)F)c(F)c3)cc2)cc(OC)c1CNCCc1ccc(C(F)(F)F)cc1 | 2.34 | 8.63 | 1.42 | 1.74 | –
25 | COc1ccc(Nc2ccc(Oc3cc(OC)c(CNCCc4ccc(C(F)(F)F)cc4)c(OC)c3)cc2)cc1OC | 3.35 | 3.13 | 0.92 | 1.35 | –
26 | COc1cc(Oc2ccc(Nc3ccccc3)cc2)cc(OC)c1CNCCc1ccc(O)cc1 | 4.54 | 6.78 | 2.75 | 3.46 | –
27 | COc1cc(Oc2ccc(Nc3ccccc3)cc2)cc(OC)c1CNCCc1ccc(N)cc1 | 5.65 | 6.21 | 2.65 | 2.87 | –
28 | O=c1[nH]cc(F)c(=O)[nH]1 [FLUOROURACIL] | 8.23 | > 20 | 9.19 | 6.5 | inhibition in vivo at 40 mg/kg (HT-29 [3]): 50.2%; Activity [4]: Toxic; Activity [5]: Toxic; Activity [6]: Toxic; Activity [7]: Toxic; Activity [8]: Toxic
29 | COc1cc(Oc2ccc(Nc3ccccc3)cc2)cc(OC)c1CNCCc1ccc(F)cc1 | 5.64 | 6.32 | 2.79 | 3.13 | –
30 | COc1cc(Oc2ccc(Nc3ccccc3)cc2)cc(OC)c1CNCCc1ccc(Cl)cc1 | 6.64 | 6.13 | 2.44 | 4.98 | –
31 | COc1cc(Oc2ccc(Nc3ccc(C(C)(C)C)cc3)cc2)cc(OC)c1CNCCc1ccc(C(F)(F)F)cc1 | 5.76 | 9.76 | 2.18 | 6.48 | –
32 | COc1cc(Oc2ccc(Nc3ccccc3)cc2)cc(OC)c1CNCCc1ccc(C)cc1 | 5.88 | 10.2 | 2.83 | 4.01 | –
33 | CCOc1ccc(Nc2ccc(Oc3cc(OC)c(CNCCc4ccc(C(F)(F)F)cc4)c(OC)c3)cc2)cc1 | 5.3 | 5.32 | 0.86 | 3.08 | –
34 | COc1cc(Oc2ccc(-c3ccc(Cl)cc3)cc2)cc(OC)c1CNCCc1ccc(C(F)(F)F)cc1 | 3.23 | 6.09 | 2.06 | 5.05 | –
35 | COc1cc(Oc2ccc(Nc3ccc(C(F)(F)F)c(C(F)(F)F)c3)cc2)cc(OC)c1CNCCc1ccc(C(F)(F)F)cc1 | 2.12 | 6.98 | 2.35 | 1.64 | –
36 | COc1ccc(CCNCc2c(OC)cc(Oc3ccc(Nc4ccccc4)cc3)cc2OC)cc1OC | 3.54 | 6.32 | 1.54 | 2.62 | –
37 | O=C(O)c1ccc(Nc2ccc([N+](=O)[O-])c3nonc23)cc1 | – | – | – | – | IC50 (c-Myc/c-Max): 33 µM
38 | COC(=O)c1ccc(Nc2ccc(Oc3cc(OC)c(CNCCc4ccc(C(F)(F)F)cc4)c(OC)c3)cc2)cc1 | 4.35 | 7.34 | 1.28 | 5.98 | –
39 | COc1cc(Oc2ccc(Nc3ccccc3)cc2)cc(OC)c1CNCCc1cccs1 | 7.56 | 10.8 | 2.65 | 3.85 | –
40 | COc1cc(Oc2ccc(Nc3ccc(-c4ccccc4)cc3)cc2)cc(OC)c1CNCCc1ccc(C(F)(F)F)cc1 | 3.41 | 5.88 | 1.7 | 3.85 | –
41 | COc1ccc(Nc2ccc(Oc3cc(OC)c(CNCCc4ccc(C(F)(F)F)cc4)c(OC)c3)cc2)cc1C | 7.09 | 6.97 | 2.34 | 5.25 | –
42 | COc1cc(Oc2ccc(Nc3ccc(F)cc3)cc2)cc(OC)c1CNCCc1ccc(C(F)(F)F)cc1 | 6.23 | 5.32 | 1.47 | 3.4 | –
43 | COc1ccc(CCNCc2c(OC)cc(Oc3ccc(Nc4ccccc4)cc3)cc2OC)cc1 | 3.15 | 4.81 | 1.36 | 1.95 | inhibition (HT-29 [9]): Dose-Dependent Effect; Activity (HT-29 [10]): Dose-Dependent Effect; inhibition (Homo sapiens): Dose-Dependent Effect; inhibition in vivo at 40 mg/kg (HT-29 [3]): 55.8%
44 | COc1ccc(-c2ccc(Oc3cc(OC)c(CNCCc4ccc(C(F)(F)F)cc4)c(OC)c3)cc2)cc1 | 2.34 | 6.45 | 2.19 | 2.62 | –
45 | COc1cc(Oc2ccc(Nc3ccccc3)cc2)cc(OC)c1CNCCc1ccc(Br)cc1 | 6.97 | 7.13 | 2.38 | 2.96 | –
